Test results from BigSolDB 2.1.

c1ccc2c(c1)Cc1ccccc1-2
solubility (mole fraction)
Settings | in acetone | in benzene | in chloroform | in isobutanol | in n-propanol | in toluene
283 K | 0.0445 | 0.0883 | 0.0893 | 0.00425 | 0.00817 | 0.063
288 K | 0.049 | 0.0982 | 0.102 | 0.00544 | 0.00903 | 0.0809
293 K | 0.0558 | 0.109 | 0.114 | 0.00691 | 0.0115 | 0.0967
298 K | 0.0687 | 0.126 | 0.132 | – | – | 0.124
298.4 K | – | – | – | 0.00902 | 0.0134 | –
303 K | – | – | – | – | – | 0.152
303.1 K | 0.0793 | – | 0.153 | – | – | –
303.2 K | – | 0.143 | – | 0.0121 | 0.0163 | –
308 K | – | 0.158 | – | 0.0156 | 0.0188 | 0.195
308.2 K | 0.0907 | – | 0.173 | – | – | –
313 K | 0.104 | 0.183 | 0.195 | 0.0192 | 0.0215 | 0.25
318 K | 0.12 | 0.209 | 0.22 | 0.023 | 0.0248 | 0.3
323 K | 0.14 | 0.235 | 0.25 | 0.0267 | 0.0289 | 0.37
